Test results published in ChEMBL document CHEMBL3603748, “Design of HIV-1 Protease Inhibitors with Amino-bis-tetrahydrofuran Derivatives as P2-Ligands to Enhance Backbone-Binding Interactions: Synthesis, Biological Evaluation, and Protein-Ligand X-ray Studies” (J Med Chem, 2015).

Key:
[1] = system: Human immunodeficiency virus 1; test: Antiviral activity against HIV1 LAI infected in human MT2 cells; format: functional, organism-based; details: Human immunodeficiency virus 1, LAI
[2] = system: Human immunodeficiency virus 1; test: Resistance index, ratio of EC50 for darunavir-resistant HIV1 P20 infected in human MT4 cells by XTT assay to EC50 for HIV1 NL4-3 infected in human MT4 cells by XTT assay; format: functional
[3] = system: Human immunodeficiency virus 1; test: Antiviral activity against darunavir-resistant HIV1 P20 infected in human MT4 cells by XTT assay; format: functional, organism-based; details: Human immunodeficiency virus 1, P20, MT4
[4] = system: Human immunodeficiency virus 1; test: Antiviral activity against HIV1 NL4-3 infected in human MT4 cells by XTT assay; format: functional, organism-based; details: Human immunodeficiency virus 1, NL4-3, MT4
[5] = biological target: Protease (Human immunodeficiency virus 1, UniProt Q9YQ12); test: Inhibition of HIV1 protease
Chain of Protease (Q9YQ12 whole entry): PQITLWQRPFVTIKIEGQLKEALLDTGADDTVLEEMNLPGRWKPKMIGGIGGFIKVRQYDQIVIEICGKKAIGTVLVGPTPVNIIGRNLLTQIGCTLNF

[6] = system: Human immunodeficiency virus 1; test: Antiviral activity against darunavir-resistant HIV1 P10 infected in human MT4 cells by XTT assay; format: functional, organism-based; details: Human immunodeficiency virus 1, P10, MT4
[7] = system: Human immunodeficiency virus 1; test: Antiviral activity against darunavir-resistant HIV1 P51 infected in human MT4 cells by XTT assay; format: functional, organism-based; details: Human immunodeficiency virus 1, P51, MT4

IC50 [1] [nM] | Ki [5] [nM] | SMILES | Ratio EC50 [2] | EC50 [3] [nM] | EC50 [4] [nM] | EC50 [6] [nM] | EC50 [7] [nM]
4.4 | 0.014 | COc1ccc(S(=O)(=O)N(CC(C)C)C[C@@H](O)[C@H](Cc2ccccc2)NC(=O)O[C@H]2CO[C@H]3OC[C@H](NC(=O)OC(C)(C)C)[C@H]32)cc1 | – | – | – | – | –
48 | 0.53 | COc1ccc(S(=O)(=O)N(CC(C)C)C[C@@H](O)[C@H](Cc2ccccc2)NC(=O)O[C@H]2CO[C@H]3OC[C@H](N)[C@H]32)cc1 | – | – | – | – | –
– | 0.048 | CCN(C(=O)OC(C)(C)C)[C@H]1CO[C@@H]2OC[C@H](OC(=O)N[C@@H](Cc3ccccc3)[C@H](O)CN(CC(C)C)S(=O)(=O)c3ccc(OC)cc3)[C@@H]21 | – | – | – | – | –
480 | 0.0099 | CN[C@H]1CO[C@@H]2OC[C@H](OC(=O)N[C@@H](Cc3ccccc3)[C@H](O)CN(CC(C)C)S(=O)(=O)c3ccc(N)cc3)[C@@H]21 | – | – | – | – | –
37 | 0.012 | COc1ccc(S(=O)(=O)N(CC(C)C)C[C@@H](O)[C@H](Cc2ccccc2)NC(=O)O[C@H]2CO[C@H]3OC[C@H](N(C)C(=O)OC(C)(C)C)[C@H]32)cc1 | – | – | – | – | –
7.2 | 0.014 | CCN(CC)[C@H]1CO[C@@H]2OC[C@H](OC(=O)N[C@@H](Cc3ccccc3)[C@H](O)CN(CC(C)C)S(=O)(=O)c3ccc(OC)cc3)[C@@H]21 | – | – | – | – | –
4.4 | 0.014 | COc1ccc(S(=O)(=O)N(CC(C)C)C[C@@H](O)[C@H](Cc2ccccc2)NC(=O)O[C@H]2CO[C@H]3OC[C@H](N(C)C)[C@H]32)cc1 | – | – | – | – | –
4.4 | 0.0039 | COc1ccc(S(=O)(=O)N(CC(C)C)C[C@@H](O)[C@H](Cc2ccccc2)NC(=O)O[C@H]2CO[C@H]3OC[C@H](N=[N+]=[N-])[C@H]32)cc1 | – | – | – | – | –
3.7 | 0.024 | COC(=O)N[C@H]1CO[C@@H]2OC[C@H](OC(=O)N[C@@H](Cc3ccccc3)[C@H](O)CN(CC(C)C)S(=O)(=O)c3ccc(OC)cc3)[C@@H]21 | – | – | – | – | –

SMILES | IC50 [1] [nM] | Ki [5] [nM] | Ratio EC50 [2] | EC50 [3] [nM] | EC50 [4] [nM] | EC50 [6] [nM] | EC50 [7] [nM]
CN[C@H]1CO[C@@H]2OC[C@H](OC(=O)N[C@@H](Cc3ccccc3)[C@H](O)CN(CC(C)C)S(=O)(=O)c3ccc(OC)cc3)[C@@H]21 | 35 | 0.0015 | 1.1 | 32 | 29 | – | –
COc1ccc(S(=O)(=O)N(CC(C)C)C[C@@H](O)[C@H](Cc2ccccc2)NC(=O)O[C@H]2CO[C@H]3OC[C@H](NC(C)C)[C@H]32)cc1 | 0.34 | 0.0063 | 23 | 24 | 1 | 21 | 260
CCN[C@H]1CO[C@@H]2OC[C@H](OC(=O)N[C@@H](Cc3ccccc3)[C@H](O)CN(CC(C)C)S(=O)(=O)c3ccc(OC)cc3)[C@@H]21 | 22 | 0.027 | – | – | 15 | 39 | 230
